According to PMC2970562, “High-Affinity Inhibitors of Human NAD^+-Dependent 15-Hydroxyprostaglandin Dehydrogenase: Mechanisms of Inhibition and Structure-Activity Relationships” (PLoS ONE, 2010):
“Also recorded” adds a separate entry of the source.

Key:
human 15-PGDH [1] = target: T1, human 15-PGDH (Homo sapiens, UniProt P15428); test: Substrate (PGE2) and cofactor (NAD+) titrations, mechanism of action, global fitting; type: biochemical; conditions: for Competitive (CM), fit residual Chi^2 value / Mixed-mode (MM), fit residual Chi^2 value / Noncompetitive (NM), fit residual Chi^2 value / Uncompetitive (UM), fit residual Chi^2 value: global fitting; for Titration of NAD^+ K m / Titration of NAD^+ V max [µmol/(min×mg)] / Titration of NAD^+ k cat/K m[×10^6] / Titration of NAD^+ k cat[1/sec]: 30 µM PGE2
T1 construct: comprising residues 3–256 of the human HPGD gene (GenBank identifier: 1203982); His6 (GHHHHHH, behind the TEV site) (C, cleaved yes); made in house; host or cells: E. coli BL21(DE3)-R3
T1 sequence (P15428 3-256): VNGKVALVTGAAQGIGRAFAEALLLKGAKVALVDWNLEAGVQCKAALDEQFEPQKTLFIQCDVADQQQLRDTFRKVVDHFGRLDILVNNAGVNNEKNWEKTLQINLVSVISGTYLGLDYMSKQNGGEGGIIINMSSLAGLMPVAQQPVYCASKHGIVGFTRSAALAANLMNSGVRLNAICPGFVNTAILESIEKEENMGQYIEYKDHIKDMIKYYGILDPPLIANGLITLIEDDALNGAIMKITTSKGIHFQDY
Experimental: Kinetic studies were performed in 100 mM Tris buffer pH 8.0, containing 0.01% Tween-20 and 10 nM 15-PGDH enzyme. […] All inhibitor compounds were dissolved in 10% (v/v) DMSO at varying concentrations from which they were applied at 1∶5 ratio (resulting in a final concentration of 2% (v/v) DMSO in all assays). For each experiment an aliquot of purified enzyme was thawed freshly and pre-diluted to 10 µM in buffer I (5 mM Tris/HCl, pH 8.0, 150 mM NaCl, 0.01% Tween-20). All experiments were performed in white 384-well PCR microplates (Bio-Rad Laboratories, Inc.) in final assay volumes of 20 µL. Twelve-point compound titrations were set up from serially diluted stock solutions in 10% (v/v) DMSO. […] The initial rates recorded in compound titrations were plotted against -log[compound], and non-linear regression (Levenberg-Marquardt) fitting of the dose-response curve to the Hill equation [47] was performed to derive the IC50, using PRISM 5.0 (GraphPad Software, Inc.). For substrate/cofactor titrations, curves with initial rates plotted against the concentration of substrate or cofactor were fitted to the Michaelis-Menten equation, to derive maximal activities, V max, and Michaelis constants, K m. Fitting qualities were judged from the goodness of fit (R^2>0.98).

human 15-PGDH [2] = target: T1, human 15-PGDH; test: Differential scanning fluorimetry (DSF), thermal stabilization; type: binding; conditions: for ∆Tm [°C] NAD+: with 200 µM NAD+; for ∆Tm [°C] NAD+ / ∆Tm [°C] NADH / ∆Tm [°C] apo: 1 µM protein, compound 50 or 250 µM, N/A = no unfolding transition observed in DSF; for ∆Tm [°C] NADH: with 200 µM NADH; for ∆Tm [°C] apo: without cofactor
HSD17β4 = target: T2, HSD17β4 (Homo sapiens, UniProt P51659); test: Selectivity screen, type-4 hydroxysteroid dehydrogenase (PubChem Assay ID 893)
T2 sequence (P51659 1-736): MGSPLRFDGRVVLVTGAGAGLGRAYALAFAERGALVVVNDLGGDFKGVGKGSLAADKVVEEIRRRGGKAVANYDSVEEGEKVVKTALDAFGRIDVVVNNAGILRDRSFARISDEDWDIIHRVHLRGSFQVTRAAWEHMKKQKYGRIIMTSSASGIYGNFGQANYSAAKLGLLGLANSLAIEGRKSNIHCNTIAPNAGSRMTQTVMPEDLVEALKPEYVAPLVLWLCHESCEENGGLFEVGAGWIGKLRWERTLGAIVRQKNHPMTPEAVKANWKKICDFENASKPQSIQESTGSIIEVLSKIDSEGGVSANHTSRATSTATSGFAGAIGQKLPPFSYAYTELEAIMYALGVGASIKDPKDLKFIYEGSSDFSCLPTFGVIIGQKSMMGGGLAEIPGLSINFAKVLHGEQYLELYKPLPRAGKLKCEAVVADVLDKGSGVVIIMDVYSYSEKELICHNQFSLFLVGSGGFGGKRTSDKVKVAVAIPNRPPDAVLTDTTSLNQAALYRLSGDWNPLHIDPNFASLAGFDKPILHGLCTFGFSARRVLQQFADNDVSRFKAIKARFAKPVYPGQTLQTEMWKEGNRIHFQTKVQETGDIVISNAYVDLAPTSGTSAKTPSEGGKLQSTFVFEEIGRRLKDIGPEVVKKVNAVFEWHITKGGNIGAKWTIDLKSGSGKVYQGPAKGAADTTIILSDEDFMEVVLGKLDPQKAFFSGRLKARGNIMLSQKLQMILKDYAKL
Experimental: The list also includes two SDR enzymes, hydroxyacyl dehydrogenase (HADH2, also known as type-10 hydroxysteroid dehydrogenase, HSD17β10; PubChem Assay ID 886) and type-4 hydroxysteroid dehydrogenase (HSD17β4; PubChem Assay ID 893), and a medium-chain dehydrogenase/reductase (MDR), aldehyde dehydrogenase 1 (ALDH1A1; PubChem Assay ID 1030), each of which was tested using a similar experimental protocol to that used for 15-PGDH.

[3] = NAD+ titration, inhibitor 20 nM
[4] = PGE2 titration, inhibitor 10 nM

Cc1cccc(-n2cnc3cc(C(=O)N4CCCCC4)ccc32)c1 [Compound 13, [1-(3-methylphenyl)-1H-benzimidazol-5-yl)(piperidin-1-yl)methanone]
decrease of K m for NAD+ (human 15-PGDH [1]; [3]): ~45% | decrease of V max (human 15-PGDH [1]; [3]): approximately 60% | Sum-of-squares F-test p, UM vs. MM (human 15-PGDH [1]; NAD^+ titration): UM vs. MM:p = 0.0654 | Sum-of-squares F-test p, NM vs. MM (human 15-PGDH [1]; PGE2 titration): NM vs. MM:p = 0.0017 | Sum-of-squares F-test p, UM vs. MM (human 15-PGDH [1]; PGE2 titration): UM vs. MM:p = 0.0133 | decrease of V max (human 15-PGDH [1]; [4]): 25% | V max relative to no inhibitor (human 15-PGDH [1]; PGE2 titration, inhibitor 20 nM, in words): less than half | Preferred mode of inhibition (human 15-PGDH [1]; PGE2 titration, rejection threshold p = 0.05): MM (MM, mixed-mode inhibition) | Competitive (CM), fit residual Chi^2 value (human 15-PGDH [1]; NAD^+ titration): 0.8764 | Mixed-mode (MM), fit residual Chi^2 value (human 15-PGDH [1]; NAD^+ titration): 0.9675 | Noncompetitive (NM), fit residual Chi^2 value (human 15-PGDH [1]; NAD^+ titration): 0.9655 | Uncompetitive (UM), fit residual Chi^2 value (human 15-PGDH [1]; NAD^+ titration): 0.9664 | Competitive (CM), fit residual Chi^2 value (human 15-PGDH [1]; PGE2 titration): 0.8669 | Mixed-mode (MM), fit residual Chi^2 value (human 15-PGDH [1]; PGE2 titration): 0.9797 | Noncompetitive (NM), fit residual Chi^2 value (human 15-PGDH [1]; PGE2 titration): 0.9777 | Uncompetitive (UM), fit residual Chi^2 value (human 15-PGDH [1]; PGE2 titration): 0.9784 | mode of inhibition with respect to the cofactor NAD+ (human 15-PGDH [1]; in words): uncompetitively | mode of inhibition with respect to the substrate PGE2 (human 15-PGDH [1]; in words): noncompetitive, uncompetitive or mixed-modes; also recorded: noncompetitively or in a mixed-type mode | Titration of PGE2 K m (human 15-PGDH [1]; inhibitor 10.0 nM): 3.7 ± 0.5 µM | Titration of PGE2 V max[µmol/(min×mg)] (human 15-PGDH [1]; inhibitor 10.0 nM): 21.3 µmol/min/mg | Titration of PGE2 k cat/K m[×10^6] (human 15-PGDH [1]; inhibitor 10.0 nM): 2.8 ×10^6 | Titration of PGE2 k cat[1/sec] (human 15-PGDH [1]; inhibitor 10.0 nM): 10.3 ± 0.3 s⁻¹ | Titration of NAD^+ K m (human 15-PGDH [1]; inhibitor 10.0 nM): 10.7 ± 0.6 µM | Titration of NAD^+ V max [µmol/(min×mg)] (human 15-PGDH [1]; inhibitor 10.0 nM): 17.5 µmol/min/mg | Titration of NAD^+ k cat/K m[×10^6] (human 15-PGDH [1]; inhibitor 10.0 nM): 0.8 ×10^6 | Titration of NAD^+ k cat[1/sec] (human 15-PGDH [1]; inhibitor 10.0 nM): 8.5 ± 0.1 s⁻¹ | Titration of PGE2 K m (human 15-PGDH [1]; inhibitor 20.0 nM): 2.8 ± 0.4 µM | Titration of PGE2 V max[µmol/(min×mg)] (human 15-PGDH [1]; inhibitor 20.0 nM): 12.6 µmol/min/mg | Titration of PGE2 k cat/K m[×10^6] (human 15-PGDH [1]; inhibitor 20.0 nM): 2.1 ×10^6 | Titration of PGE2 k cat[1/sec] (human 15-PGDH [1]; inhibitor 20.0 nM): 6.1 ± 0.2 s⁻¹ | Titration of NAD^+ K m (human 15-PGDH [1]; inhibitor 20.0 nM): 8.9 ± 0.8 µM | Titration of NAD^+ V max [µmol/(min×mg)] (human 15-PGDH [1]; inhibitor 20.0 nM): 8.2 µmol/min/mg | Titration of NAD^+ k cat/K m[×10^6] (human 15-PGDH [1]; inhibitor 20.0 nM): 0.4 ×10^6 | Titration of NAD^+ k cat[1/sec] (human 15-PGDH [1]; inhibitor 20.0 nM): 4.0 ± 0.1 s⁻¹ | ΔTm in the presence of NAD+ (human 15-PGDH [2]): 7.3±0.2 °C | ΔTm in the presence of NADH (human 15-PGDH [2]): 13.5±0.9 °C | ∆Tm [°C] NAD+ (human 15-PGDH [2]): 7.3 °C | ∆Tm [°C] NADH (human 15-PGDH [2]): 13.5 °C | ∆Tm [°C] apo (human 15-PGDH [2]): -1.7 °C | IC50 (HSD17β4): > 57.5 µM

Cc1cc(-c2nnc3n2CCCCC3)c(C)n1-c1ccccc1 [Compound 72]
Sum-of-squares F-test p, NM vs. MM (human 15-PGDH [1]; PGE2 titration): NM vs. MM:p = 0.3515 | effect on the K m (human 15-PGDH [1]; PGE2 titration, in words): no effect | decrease of V max (human 15-PGDH [1]; [4]): approximately 50% | Competitive (CM), fit residual Chi^2 value (human 15-PGDH [1]; PGE2 titration): 0.9299 | Mixed-mode (MM), fit residual Chi^2 value (human 15-PGDH [1]; PGE2 titration): 0.9736 | Noncompetitive (NM), fit residual Chi^2 value (human 15-PGDH [1]; PGE2 titration): 0.9734 | Uncompetitive (UM), fit residual Chi^2 value (human 15-PGDH [1]; PGE2 titration): 0.9680 | mode of inhibition with respect to the substrate PGE2 (human 15-PGDH [1]; in words): noncompetitive or mixed-type | Titration of PGE2 K m (human 15-PGDH [1]; inhibitor 4.0 nM): 5.6 ± 1.1 µM | Titration of PGE2 V max[µmol/(min×mg)] (human 15-PGDH [1]; inhibitor 4.0 nM): 22.8 µmol/min/mg | Titration of PGE2 k cat/K m[×10^6] (human 15-PGDH [1]; inhibitor 4.0 nM): 2.0 ×10^6 | Titration of PGE2 k cat[1/sec] (human 15-PGDH [1]; inhibitor 4.0 nM): 11.1 ± 0.5 s⁻¹ | Titration of PGE2 K m (human 15-PGDH [1]; inhibitor 10.0 nM): 6.4 ± 0.6 µM | Titration of PGE2 V max[µmol/(min×mg)] (human 15-PGDH [1]; inhibitor 10.0 nM): 15.4 µmol/min/mg | Titration of PGE2 k cat/K m[×10^6] (human 15-PGDH [1]; inhibitor 10.0 nM): 1.2 ×10^6 | Titration of PGE2 k cat[1/sec] (human 15-PGDH [1]; inhibitor 10.0 nM): 7.5 ± 0.2 s⁻¹ | ∆Tm [°C] NAD+ (human 15-PGDH [2]): 5.0 °C | ∆Tm [°C] NADH (human 15-PGDH [2]): 10.5 °C | ∆Tm [°C] apo (human 15-PGDH [2]): 0.1 °C | IC50 (HSD17β4): > 57.5 µM
